# In patent US20120094998A1, “Oligomer-Protein Tyrosine Kinase Inhibitor Conjugates” (Nektar Therapeutics, priority 2009, published 2012):
# Like-named read-outs stand apart in the source and are kept apart here.
# What was measured:
# Format in all cases: biochemical
# CK1d = CK1d (Homo sapiens, UniProt P48730); assay: Activity against various protein tyrosine kinases: CK1d; settings: for inhibition at 0.01 µM: 10 nM
# Procedure: (§1) Using techniques know those of ordinary skill in the art, compounds were tested for activity against various protein tyrosine kinases.
# MET = MET (Homo sapiens, UniProt P08581); assay: Activity against various protein tyrosine kinases: MET; settings: for inhibition at 0.01 µM: 10 nM
# Chain of MET (P08581 25-1390): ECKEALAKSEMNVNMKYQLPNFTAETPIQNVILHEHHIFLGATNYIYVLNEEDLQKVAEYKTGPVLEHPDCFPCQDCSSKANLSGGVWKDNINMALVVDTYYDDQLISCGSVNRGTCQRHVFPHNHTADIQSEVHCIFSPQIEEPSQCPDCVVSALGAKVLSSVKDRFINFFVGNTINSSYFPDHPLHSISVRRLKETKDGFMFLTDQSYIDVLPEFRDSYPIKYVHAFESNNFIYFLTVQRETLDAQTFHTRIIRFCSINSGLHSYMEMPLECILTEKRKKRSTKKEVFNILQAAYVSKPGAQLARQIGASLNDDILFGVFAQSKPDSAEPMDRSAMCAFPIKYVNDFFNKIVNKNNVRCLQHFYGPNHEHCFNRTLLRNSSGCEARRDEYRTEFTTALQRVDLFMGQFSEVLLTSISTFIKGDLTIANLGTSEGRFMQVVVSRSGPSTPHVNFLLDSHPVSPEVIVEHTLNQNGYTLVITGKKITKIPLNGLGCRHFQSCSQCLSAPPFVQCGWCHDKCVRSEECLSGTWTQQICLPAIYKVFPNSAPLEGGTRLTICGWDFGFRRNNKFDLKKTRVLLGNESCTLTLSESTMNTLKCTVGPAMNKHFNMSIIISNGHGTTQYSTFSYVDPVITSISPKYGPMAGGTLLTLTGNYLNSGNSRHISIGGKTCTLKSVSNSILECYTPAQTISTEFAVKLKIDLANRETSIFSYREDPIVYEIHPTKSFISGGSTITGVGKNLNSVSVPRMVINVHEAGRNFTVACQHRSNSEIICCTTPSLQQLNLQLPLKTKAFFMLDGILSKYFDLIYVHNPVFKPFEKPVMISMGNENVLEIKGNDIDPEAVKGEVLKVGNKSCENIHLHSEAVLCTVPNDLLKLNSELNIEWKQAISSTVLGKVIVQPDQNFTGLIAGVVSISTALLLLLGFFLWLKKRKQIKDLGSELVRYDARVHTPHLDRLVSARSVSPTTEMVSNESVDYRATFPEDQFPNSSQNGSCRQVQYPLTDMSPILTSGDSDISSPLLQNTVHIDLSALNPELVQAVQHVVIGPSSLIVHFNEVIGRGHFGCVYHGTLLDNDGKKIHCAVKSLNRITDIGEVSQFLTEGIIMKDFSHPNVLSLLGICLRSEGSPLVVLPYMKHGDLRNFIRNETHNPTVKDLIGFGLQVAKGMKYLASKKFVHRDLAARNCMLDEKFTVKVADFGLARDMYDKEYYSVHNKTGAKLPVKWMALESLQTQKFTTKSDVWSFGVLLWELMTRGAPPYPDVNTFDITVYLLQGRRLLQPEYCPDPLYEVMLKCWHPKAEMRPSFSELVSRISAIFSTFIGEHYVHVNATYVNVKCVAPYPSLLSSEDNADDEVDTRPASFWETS
# Procedure: as §1
# PKCz = target: T1, PKCz (Homo sapiens, UniProt Q05513); assay: Activity against various protein tyrosine kinases: PKCz; settings: for inhibition at 0.01 µM: 10 nM
# T1 sequence (Q05513 1-592): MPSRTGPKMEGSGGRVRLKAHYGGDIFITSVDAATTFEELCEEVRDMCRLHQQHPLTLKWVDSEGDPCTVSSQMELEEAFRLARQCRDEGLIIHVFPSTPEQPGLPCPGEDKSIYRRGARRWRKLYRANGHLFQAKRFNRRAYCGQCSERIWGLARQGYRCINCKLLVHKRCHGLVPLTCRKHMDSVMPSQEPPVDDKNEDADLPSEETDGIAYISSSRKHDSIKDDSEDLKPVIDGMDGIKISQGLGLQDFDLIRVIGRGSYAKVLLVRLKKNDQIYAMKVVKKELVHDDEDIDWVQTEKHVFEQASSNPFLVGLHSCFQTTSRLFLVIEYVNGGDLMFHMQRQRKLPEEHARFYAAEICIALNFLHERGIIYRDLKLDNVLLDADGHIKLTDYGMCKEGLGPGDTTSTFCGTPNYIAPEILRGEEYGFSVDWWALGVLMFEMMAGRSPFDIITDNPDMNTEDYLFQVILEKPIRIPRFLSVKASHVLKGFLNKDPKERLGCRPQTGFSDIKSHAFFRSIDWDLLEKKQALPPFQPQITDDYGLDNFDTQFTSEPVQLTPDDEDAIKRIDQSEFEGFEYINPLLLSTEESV
# Procedure: as §1
# AurB = AurB (Homo sapiens, UniProt Q96GD4); assay: Activity against various protein tyrosine kinases: AurB; settings: for inhibition at 0.01 µM: 10 nM; for inhibition at 1 µM: read-out: % Inhibition at 1 μM
# Chain of AurB (Q96GD4 whole entry): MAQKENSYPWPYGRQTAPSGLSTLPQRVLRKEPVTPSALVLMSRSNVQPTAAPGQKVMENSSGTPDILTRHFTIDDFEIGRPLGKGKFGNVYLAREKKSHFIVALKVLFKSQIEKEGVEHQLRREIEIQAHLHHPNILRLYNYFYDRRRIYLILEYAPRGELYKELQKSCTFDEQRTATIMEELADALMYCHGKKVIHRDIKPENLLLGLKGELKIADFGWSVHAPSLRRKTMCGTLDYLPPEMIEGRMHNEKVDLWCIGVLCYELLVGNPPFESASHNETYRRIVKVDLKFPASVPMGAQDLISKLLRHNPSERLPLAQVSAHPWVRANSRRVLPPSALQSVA
# Procedure: as §1
# FGFR2 = FGFR2 (Homo sapiens, UniProt P21802); assay: Activity against various protein tyrosine kinases: FGFR2; settings: for inhibition at 0.01 µM: 10 nM
# Chain of FGFR2 (P21802 22-821, species assumed): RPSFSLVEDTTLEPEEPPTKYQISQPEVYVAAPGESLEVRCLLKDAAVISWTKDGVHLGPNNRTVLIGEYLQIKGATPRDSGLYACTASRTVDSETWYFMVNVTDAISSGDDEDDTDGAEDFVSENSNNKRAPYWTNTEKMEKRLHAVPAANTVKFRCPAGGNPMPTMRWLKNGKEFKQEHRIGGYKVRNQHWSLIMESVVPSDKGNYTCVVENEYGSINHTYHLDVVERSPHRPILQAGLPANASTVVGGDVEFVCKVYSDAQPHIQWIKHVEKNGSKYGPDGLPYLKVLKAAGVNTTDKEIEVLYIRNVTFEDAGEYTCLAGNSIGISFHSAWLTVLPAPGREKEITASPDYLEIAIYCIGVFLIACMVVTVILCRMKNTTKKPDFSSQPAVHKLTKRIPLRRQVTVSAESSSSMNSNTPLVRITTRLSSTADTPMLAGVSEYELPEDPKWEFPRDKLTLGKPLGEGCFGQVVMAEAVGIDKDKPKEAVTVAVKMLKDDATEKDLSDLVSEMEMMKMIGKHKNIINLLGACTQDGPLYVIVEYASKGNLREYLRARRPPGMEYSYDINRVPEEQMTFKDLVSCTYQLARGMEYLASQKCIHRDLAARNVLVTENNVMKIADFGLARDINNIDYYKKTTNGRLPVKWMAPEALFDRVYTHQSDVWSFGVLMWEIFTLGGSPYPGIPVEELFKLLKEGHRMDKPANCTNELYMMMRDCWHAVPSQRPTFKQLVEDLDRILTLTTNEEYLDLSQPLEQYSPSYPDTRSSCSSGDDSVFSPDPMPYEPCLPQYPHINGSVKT
# Procedure: as §1
# FGFR2 (N549H) = FGFR2 (N549H) (Homo sapiens, UniProt P21802, N549H); assay: Activity against various protein tyrosine kinases: FGFR2 (N549H); settings: for inhibition at 0.01 µM: 10 nM
# Chain of FGFR2 (N549H) (P21802 22-821 N549H, species assumed): as the sequence (P21802 22-821, species assumed) above, with N528H counted along it
# Procedure: as §1
# MSK1 = MSK1 (Homo sapiens, UniProt O75582); assay: Activity against various protein tyrosine kinases: MSK1; settings: for inhibition at 0.01 µM: 10 nM
# Chain of MSK1 (O75582 whole entry, species assumed): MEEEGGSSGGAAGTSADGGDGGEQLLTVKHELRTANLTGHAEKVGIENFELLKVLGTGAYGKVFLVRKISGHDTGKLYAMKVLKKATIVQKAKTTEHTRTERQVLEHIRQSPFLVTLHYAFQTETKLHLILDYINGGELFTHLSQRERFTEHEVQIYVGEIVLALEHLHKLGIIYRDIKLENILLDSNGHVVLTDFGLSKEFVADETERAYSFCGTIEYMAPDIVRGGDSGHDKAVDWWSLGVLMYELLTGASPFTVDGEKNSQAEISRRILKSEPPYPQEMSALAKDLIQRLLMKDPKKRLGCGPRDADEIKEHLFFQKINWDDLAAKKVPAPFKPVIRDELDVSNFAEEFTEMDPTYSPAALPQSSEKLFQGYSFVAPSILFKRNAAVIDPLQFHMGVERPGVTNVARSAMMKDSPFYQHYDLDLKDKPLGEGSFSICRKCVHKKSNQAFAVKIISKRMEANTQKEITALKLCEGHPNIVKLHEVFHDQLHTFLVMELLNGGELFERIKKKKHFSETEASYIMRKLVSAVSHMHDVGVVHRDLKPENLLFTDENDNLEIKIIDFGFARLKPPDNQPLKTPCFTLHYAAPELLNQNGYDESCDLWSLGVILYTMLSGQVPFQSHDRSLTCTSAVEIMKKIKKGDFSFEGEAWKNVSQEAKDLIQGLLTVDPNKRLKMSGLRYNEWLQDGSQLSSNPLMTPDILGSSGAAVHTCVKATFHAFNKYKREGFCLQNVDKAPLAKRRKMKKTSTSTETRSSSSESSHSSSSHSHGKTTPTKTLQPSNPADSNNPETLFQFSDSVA
# Procedure: as §1
# Erk2 = Erk2 (Homo sapiens, UniProt P28482); assay: Activity against various protein tyrosine kinases: Erk2; settings: for inhibition at 0.01 µM: 10 nM
# Chain of Erk2 (P28482 whole entry, species assumed): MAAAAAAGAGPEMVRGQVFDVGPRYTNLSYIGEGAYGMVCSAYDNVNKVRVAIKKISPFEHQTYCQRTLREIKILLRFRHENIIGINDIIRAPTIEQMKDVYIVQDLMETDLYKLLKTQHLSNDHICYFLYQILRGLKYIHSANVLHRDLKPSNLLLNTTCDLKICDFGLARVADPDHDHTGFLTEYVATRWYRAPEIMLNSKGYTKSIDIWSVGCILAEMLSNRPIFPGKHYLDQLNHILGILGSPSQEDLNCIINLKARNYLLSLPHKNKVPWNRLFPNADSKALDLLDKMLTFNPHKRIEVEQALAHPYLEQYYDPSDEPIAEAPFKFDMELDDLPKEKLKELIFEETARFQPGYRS
# Procedure: as §1
# CHK2 = CHK2 (Homo sapiens, UniProt O96017); assay: Activity against various protein tyrosine kinases: CHK2; settings: for inhibition at 0.01 µM: 10 nM
# Procedure: as §1
# TSSK2 = target: T2, TSSK2 (Homo sapiens, UniProt Q96PF2); assay: Activity against various protein tyrosine kinases: TSSK2; settings: for inhibition at 0.01 µM: 10 nM
# T2 sequence (Q96PF2 1-358): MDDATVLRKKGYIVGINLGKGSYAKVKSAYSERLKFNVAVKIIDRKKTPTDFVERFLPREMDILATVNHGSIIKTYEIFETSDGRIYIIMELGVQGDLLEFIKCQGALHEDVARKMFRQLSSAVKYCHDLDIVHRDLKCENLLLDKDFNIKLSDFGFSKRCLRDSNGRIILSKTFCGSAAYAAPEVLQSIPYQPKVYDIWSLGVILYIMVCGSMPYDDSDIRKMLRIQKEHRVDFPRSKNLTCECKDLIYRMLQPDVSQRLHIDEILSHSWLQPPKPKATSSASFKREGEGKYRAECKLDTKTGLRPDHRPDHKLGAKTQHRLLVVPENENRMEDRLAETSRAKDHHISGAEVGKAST
# Procedure: as §1
# MAPKAPK2 = MAPKAPK2 (Homo sapiens, UniProt P49137); assay: Activity against various protein tyrosine kinases: MAPKAPK2; settings: for inhibition at 0.01 µM: 10 nM
# Procedure: as §1
# Flt3 (D835Y) = target: T3, Flt3 (D835Y) (Homo sapiens, UniProt P36888, D835Y); assay: Activity against various protein tyrosine kinases: Flt3 (D835Y); settings: for inhibition at 0.01 µM: 10 nM
# T3 sequence (P36888 27-993 D835Y): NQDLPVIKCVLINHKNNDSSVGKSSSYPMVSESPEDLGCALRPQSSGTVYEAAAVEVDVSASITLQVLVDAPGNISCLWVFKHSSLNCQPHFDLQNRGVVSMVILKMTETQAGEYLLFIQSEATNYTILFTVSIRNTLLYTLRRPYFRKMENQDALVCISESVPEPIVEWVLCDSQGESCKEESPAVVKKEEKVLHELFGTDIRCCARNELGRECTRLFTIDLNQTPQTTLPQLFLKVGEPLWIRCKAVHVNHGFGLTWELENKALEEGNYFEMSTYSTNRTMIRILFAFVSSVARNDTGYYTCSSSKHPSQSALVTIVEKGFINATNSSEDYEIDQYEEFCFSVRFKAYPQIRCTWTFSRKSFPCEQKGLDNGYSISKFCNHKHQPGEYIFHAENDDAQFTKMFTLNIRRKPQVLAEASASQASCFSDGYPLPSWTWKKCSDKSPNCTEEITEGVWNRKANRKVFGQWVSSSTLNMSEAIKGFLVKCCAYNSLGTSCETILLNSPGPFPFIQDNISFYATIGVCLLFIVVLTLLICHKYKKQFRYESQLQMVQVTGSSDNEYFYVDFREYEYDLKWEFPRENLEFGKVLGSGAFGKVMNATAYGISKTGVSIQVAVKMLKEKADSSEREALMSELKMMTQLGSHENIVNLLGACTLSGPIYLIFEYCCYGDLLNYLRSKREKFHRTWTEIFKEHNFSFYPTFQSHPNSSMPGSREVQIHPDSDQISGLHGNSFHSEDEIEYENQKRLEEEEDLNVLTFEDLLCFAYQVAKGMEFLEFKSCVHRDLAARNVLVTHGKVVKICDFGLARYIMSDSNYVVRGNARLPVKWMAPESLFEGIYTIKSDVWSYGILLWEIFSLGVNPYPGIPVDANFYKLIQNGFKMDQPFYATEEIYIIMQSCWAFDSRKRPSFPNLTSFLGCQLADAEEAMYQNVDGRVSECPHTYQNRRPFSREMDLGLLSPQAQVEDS
# Procedure: as §1
# PDGFR_beta = PDGFR_beta (Homo sapiens, UniProt P09619); assay: Activity against various protein tyrosine kinases: PDGFR_beta; settings: for inhibition at 0.01 µM: 10 nM
# Chain of PDGFR_beta (P09619 33-1106, species assumed): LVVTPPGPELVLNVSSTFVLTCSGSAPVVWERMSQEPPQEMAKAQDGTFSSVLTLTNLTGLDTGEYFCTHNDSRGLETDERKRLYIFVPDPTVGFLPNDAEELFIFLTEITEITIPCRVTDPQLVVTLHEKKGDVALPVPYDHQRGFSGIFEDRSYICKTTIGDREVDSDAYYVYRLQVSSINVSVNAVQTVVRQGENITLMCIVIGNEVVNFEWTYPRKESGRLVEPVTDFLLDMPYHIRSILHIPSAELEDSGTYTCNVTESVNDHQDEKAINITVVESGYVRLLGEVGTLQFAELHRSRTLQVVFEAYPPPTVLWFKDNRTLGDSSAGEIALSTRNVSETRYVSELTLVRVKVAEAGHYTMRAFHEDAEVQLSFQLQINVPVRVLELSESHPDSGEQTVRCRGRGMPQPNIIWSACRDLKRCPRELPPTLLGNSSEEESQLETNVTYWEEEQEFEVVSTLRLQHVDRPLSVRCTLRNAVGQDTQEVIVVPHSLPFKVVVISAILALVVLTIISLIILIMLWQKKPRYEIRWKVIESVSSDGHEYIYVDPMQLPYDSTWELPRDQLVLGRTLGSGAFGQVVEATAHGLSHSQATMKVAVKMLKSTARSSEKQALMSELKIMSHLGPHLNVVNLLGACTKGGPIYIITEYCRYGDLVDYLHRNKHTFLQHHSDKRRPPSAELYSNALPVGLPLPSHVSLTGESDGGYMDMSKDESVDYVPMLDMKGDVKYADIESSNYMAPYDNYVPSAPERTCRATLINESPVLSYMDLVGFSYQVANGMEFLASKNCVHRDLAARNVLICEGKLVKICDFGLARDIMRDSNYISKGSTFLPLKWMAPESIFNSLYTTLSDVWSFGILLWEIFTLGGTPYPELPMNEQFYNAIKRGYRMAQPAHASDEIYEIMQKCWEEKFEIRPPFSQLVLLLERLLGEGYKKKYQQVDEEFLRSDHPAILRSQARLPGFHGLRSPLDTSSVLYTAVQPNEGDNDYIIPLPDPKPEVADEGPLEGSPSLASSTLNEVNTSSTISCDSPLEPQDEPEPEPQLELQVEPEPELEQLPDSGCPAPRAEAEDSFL
# Procedure: as §1
# GSK3b = GSK3b (Homo sapiens, UniProt P49841); assay: Activity against various protein tyrosine kinases: GSK3b; settings: for inhibition at 0.01 µM: 10 nM
# Procedure: as §1
inhibition at 0.01 µM (CK1d) [%],inhibition at 1 µM (CK1d) [%],inhibition at 0.01 µM (MET) [%],inhibition at 1 µM (MET) [%],inhibition at 0.01 µM (PKCz) [%],inhibition at 1 µM (PKCz) [%],inhibition at 0.01 µM (AurB; AurB) [%],"inhibition at 1 µM (AurB; AurB, 1 μM) [%]",inhibition at 0.01 µM (FGFR2) [%],inhibition at 1 µM (FGFR2) [%],inhibition at 0.01 µM (FGFR2 (N549H)) [%],inhibition at 1 µM (FGFR2 (N549H)) [%],inhibition at 0.01 µM (MSK1) [%],inhibition at 1 µM (MSK1) [%],inhibition at 0.01 µM (Erk2) [%],inhibition at 1 µM (Erk2) [%],inhibition at 0.01 µM (CHK2) [%],inhibition at 1 µM (CHK2) [%],inhibition at 0.01 µM (TSSK2) [%],inhibition at 0.01 µM (GSK3b) [%],SMILES,other results
1,3,3,0,-12,-13,-1,4,-2,38,7,75,2,1,6,11,1,11,-1,4,COCCOCCOCCNC(=O)OCCN1CCN(c2cc(Nc3ncc(C(=O)Nc4c(C)cccc4Cl)s3)nc(C)n2)CC1 [mPEG3-NHCOO-Dasatinib],inhibition at 1 µM (TSSK2): 0%; inhibition at 0.01 µM (MAPKAPK2): 1%; inhibition at 1 µM (MAPKAPK2): -1%; inhibition at 0.01 µM (Flt3 (D835Y)): 6%; inhibition at 1 µM (Flt3 (D835Y)): 10%; inhibition at 0.01 µM (PDGFR_beta): 48%; inhibition at 1 µM (PDGFR_beta): 99%; inhibition at 1 µM (GSK3b): 1%
0,9,1,1,5,-9,0,4,5,35,5,63,3,5,3,2,2,1,3,3,COCCOCCOCCOCCOCCOCCOCCNC(=O)OCCN1CCN(c2cc(Nc3ncc(C(=O)Nc4c(C)cccc4Cl)s3)nc(C)n2)CC1 [mPEG7-NHCOO-Dasatinib],inhibition at 1 µM (TSSK2): -2%; inhibition at 0.01 µM (MAPKAPK2): 3%; inhibition at 1 µM (MAPKAPK2): 7%; inhibition at 0.01 µM (Flt3 (D835Y)): 3%; inhibition at 1 µM (Flt3 (D835Y)): 7%; inhibition at 0.01 µM (PDGFR_beta): 60%; inhibition at 1 µM (PDGFR_beta): 100%; inhibition at 1 µM (GSK3b): 2%

SMILES,inhibition at 0.01 µM (CK1d) [%],inhibition at 1 µM (CK1d) [%],inhibition at 0.01 µM (MET) [%],inhibition at 1 µM (MET) [%],inhibition at 0.01 µM (PKCz) [%],inhibition at 1 µM (PKCz) [%],inhibition at 0.01 µM (AurB; AurB) [%],"inhibition at 1 µM (AurB; AurB, 1 μM) [%]",inhibition at 0.01 µM (FGFR2) [%],inhibition at 1 µM (FGFR2) [%],inhibition at 0.01 µM (FGFR2 (N549H)) [%],inhibition at 1 µM (FGFR2 (N549H)) [%],inhibition at 0.01 µM (MSK1) [%],inhibition at 1 µM (MSK1) [%],inhibition at 0.01 µM (Erk2) [%],inhibition at 1 µM (Erk2) [%],inhibition at 0.01 µM (CHK2) [%],inhibition at 1 µM (CHK2) [%],inhibition at 0.01 µM (TSSK2) [%],inhibition at 0.01 µM (GSK3b) [%],other results
"Cc1nc(Nc2ncc(C(=O)Nc3c(C)cccc3Cl)s2)cc(N2CCN(CCO)CC2)n1 [Dasatinib, reference compound]",1,,-2,,2,,,,3,36,6,71,,3,-2,,3,,-3,7,inhibition at 1 µM (AurB): 6%
